Laboratory results published in ChEMBL document CHEMBL3797192, “Potential pancreatic lipase inhibitory activity of phenolic constituents from the root bark of Morus alba L” (Bioorg Med Chem Lett, 2016).

Target: T1, Pancreatic triacylglycerol lipase (Sus scrofa, UniProt P00591)
T1 sequence (P00591 whole entry): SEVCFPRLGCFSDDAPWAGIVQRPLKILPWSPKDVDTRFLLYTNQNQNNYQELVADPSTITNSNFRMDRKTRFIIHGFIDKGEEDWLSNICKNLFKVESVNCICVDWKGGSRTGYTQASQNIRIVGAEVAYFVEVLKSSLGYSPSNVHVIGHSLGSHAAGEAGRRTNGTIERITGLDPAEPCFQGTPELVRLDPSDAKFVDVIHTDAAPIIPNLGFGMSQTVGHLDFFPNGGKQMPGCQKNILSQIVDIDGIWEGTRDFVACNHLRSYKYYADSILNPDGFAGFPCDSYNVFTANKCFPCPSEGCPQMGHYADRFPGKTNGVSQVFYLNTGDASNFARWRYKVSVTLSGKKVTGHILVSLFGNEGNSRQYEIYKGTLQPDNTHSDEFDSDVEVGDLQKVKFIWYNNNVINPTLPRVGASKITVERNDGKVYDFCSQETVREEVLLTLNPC
Test: Inhibition of porcine pancreatic lipase using p-nitrophenyl butyrate as substrate assessed as formation of p-nitrophenol preincubated for 10 mins followed by substrate addition by spectrophotometric method

| Structure (SMILES) | IC50 |
| --- | --- |
| CC(C)=CCCC(C)=CCc1c(O)cc2c(c1O)C(=O)C[C@@H](c1ccc(O)c(CC=C(C)C)c1O)O2 | 0.71 µM |
| CC(C)=CCCC1(C)C=Cc2c(O)cc(-c3cc4ccc(O)cc4o3)cc2O1 (centres undefined) | 0.76 µM |
| COc1cc(O)cc(/C=C/c2ccc(O)cc2)c1C/C=C(/C)CCC=C(C)C | 0.85 µM |
| CC(C)=CCC/C(C)=C/Cc1c(O)ccc2cc(-c3cc(O)cc(O)c3CC=C(C)C)oc12 [MULBERROFURAN D] | 0.09 µM |
| CC(C)=CCC/C(C)=C\CC/C(C)=C\Cc1c(O)cc(O)c(CC=C(C)C)c1-c1cc2ccc(O)cc2o1 | 0.39 µM |
| COc1cc(O)cc(-c2cc3ccc(O)cc3o2)c1C/C=C(/C)CC/C=C(/C)CCC=C(C)C | 0.57 µM |
| CC(C)=CCC/C(C)=C\CC/C(C)=C\Cc1c(O)cc(O)cc1-c1cc2ccc(O)cc2o1 [MULBERROFURAN W] | 0.7 µM |
| COc1cc(O)cc(-c2cc3ccc(O)c(C/C=C(/C)CCC=C(C)C)c3o2)c1CC=C(C)C | 0.92 µM |
| CC(C)=CCC/C(C)=C\Cc1c(O)ccc2cc(-c3cc(O)c4ccoc4c3)oc12 | 0.48 µM |
